Results from patent publication US8143287B2, “Thrombopoietin mimetics” (Stategics, Inc., priority 2006, dated 2012).

Tests used:
[1] = Solubility in water; format: physicochemical; details: parent compound without salt formation or use of specialized excipients
Experimental: A red solution of Compound 3f, 1 M HCl (0.75 mL, 0.75 mmol) and ethanol (1.5 mL) was cooled to 0 deg C. under nitrogen. A solution of 0.060 g of sodium nitrite in 1 mL of water was prepared separately and 0.25 mL (0.22 mmol of sodium nitrite) was added dropwise to the solution containing compound 3f with formation of a dark red-yellow color. The diazotization was monitored using TLC with 75% ethyl acetate-hexanes. Compound 1b (0.042 g, 0.21 mmol) was added after 30 min followed by sodium bicarbonate (0.086 g, 1.0 mmol) and additional ethanol (0.3 mL). The mixture was allowed to warm to 20 deg C., treated with additional sodium bicarbonate (0.073 g, 0.87 mmol) to adjust the pH to 7-8, and allowed to stir for 12 h. The mixture was diluted with ethyl acetate (100 mL) and 0.1 M HCl (5 mL). The aqueous layer was separated and extracted with 20 mL of ethyl acetate. The combined organics were washed with saturated sodium chloride (2×20 mL), and dried over sodium sulfate. The solvent was removed under reduced pressure and the residue purified by silica gel chromatography (40% ethyl acetate-hexanes) to afford Example 3 (0.0256 g, 29% yield over 2 steps). Electrospray MS [M]− 447.2.

[2] = system: CD34+ CD38− human bone marrow cells; details: cited from earlier work

Compound	solubility [1] [µM]	expansion of multipotent progenitors ([2]; following a 14-day incubation) [fold]	enhancement of clonogenic growth ([2]; in response to KL+FL+IL-3+IL-6+EPO) [%]
CC1=NN(c2ccc(C)c(C)c2)C(=O)/C1=N\Nc1cccc(C2CCCC(C(=O)O)C2)c1O (stereo not drawn) [Example 3, 3-(3′-{2-[1-(3,4-dimethylphenyl)-3-methyl-5-oxo-4,5-dihydro-1H-pyrazol-4-ylidene]hydrazino}-2′-hydroxy-phenyl)cyclohexane-1-carboxylic Acid]	140	–	–
Thrombopoietin [TPO]	–	40	≤ 80
